Literature values in PMC12368479, “Inhibition of the Clathrin Terminal Domain—Amphiphysin Protein–Protein Interaction. Probing the Pitstop 2 Aromatic Moiety” (Chemmedchem, 2025).

Target: T1, clathrin heavy chain NTD (amino acids 1–364) – amphiphysin 1 B/C domain protein–protein interaction (NTD‐PPI) (Homo sapiens, UniProt Q00610)
T1 construct: GST‐tagged clathrin heavy chain NTD (amino acids 1–364); made in house
T1 sequence (Q00610 1-364): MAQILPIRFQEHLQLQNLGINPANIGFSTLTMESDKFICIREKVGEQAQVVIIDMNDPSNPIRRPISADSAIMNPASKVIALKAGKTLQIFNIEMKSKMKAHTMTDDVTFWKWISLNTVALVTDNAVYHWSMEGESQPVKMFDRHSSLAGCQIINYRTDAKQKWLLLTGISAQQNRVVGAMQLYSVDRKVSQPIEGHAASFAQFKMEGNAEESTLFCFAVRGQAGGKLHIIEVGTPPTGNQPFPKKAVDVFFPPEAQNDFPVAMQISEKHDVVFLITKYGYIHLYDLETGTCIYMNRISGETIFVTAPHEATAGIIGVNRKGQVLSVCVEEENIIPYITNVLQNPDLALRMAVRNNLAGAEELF
Parameters: method as in PMID 21816279, PMID 27853797
Conditions: Figure 1, lead Pitstop 2 and earlier analogs; read-out: IC50 (clathrin NTD‐PPI inhibition); cited from earlier work

| Structure (SMILES) | IC50 [µM] |
| --- | --- |
| O=C1N=C(NS(=O)(=O)c2cccc3ccccc23)S/C1=C\c1ccc(Br)cc1 [Pitstop 2, (Z)‐N‐(5‐(4‐bromenzylidene)‐4‐oxo‐4,5‐dihydrothiazol‐2‐yl)naphthalene‐1‐sulfonamide] | 1.9 |
| O=C1N=C(NS(=O)(=O)c2cccc(Cl)c2)S/C1=C\c1ccc(Br)cc1 [compound 2] | 5.1 |
| O=C1N=C(NS(=O)(=O)c2cccc3ccccc23)S/C1=C\c1cccc(O)c1O [compound 3] | 3.5 |
